In patent publication US10414811B2, “Protease-resistant lipidated GLP-1 analogs” (MEDIMMUNE LIMITED, priority 2015, dated 2019):
Like-named read-outs stand apart in the source and are kept apart here. Numbered stars: 1 amine (or outer) side, 2 acyl side, 3 side chain; on linkers, the order of the positions; unused ones are H or OH. Square brackets hold non-standard residues; d marks the D form. Side chains are listed from the residue outwards. Peptide text beside a SMILES is read from it. * marks the point of attachment. γGlu = O=C(O)[C@H](CCC(=O)[*:2])N[*:1]; αMeF = C[C@](N)(Cc1ccccc1)C(=O)O; αMeK = C[C@](N)(CCCCN)C(=O)O; Lauroyl = CCCCCCCCCCCC(=O)*; αMeS = C[C@](N)(CO)C(=O)O; AEEA = NCCOCCOCC(=O)O; Aib = CC(C)(N)C(=O)O

What was measured:
Assay type in all cases: cell-based
[1] = target: T1, human glucagon receptor (GCGR) (Homo sapiens, UniProt P47871); assay: cAMP assay, human GCGR cells
T1 construct: expressed in transfected cells
In short: (§1)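 Peptide-stimulated cAMP measured by two-step HTRF after a 30 min room-temperature incubation with receptor-expressing cells (hGLP-1R, hGIPR at 1×10^5 cells/ml; hGCGR at 2×10^5 cells/ml). Duplicate dilutions; EC50 from 4-parameter logistic fit of % Delta F.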

[2] = target: T2, human glucose-dependent insulinotropic peptide receptor (GIPR) (Homo sapiens, UniProt P48546); assay: cAMP assay, human GIPR cells
T2 construct: expressed in transfected cells
T2 sequence (P48546 22-466): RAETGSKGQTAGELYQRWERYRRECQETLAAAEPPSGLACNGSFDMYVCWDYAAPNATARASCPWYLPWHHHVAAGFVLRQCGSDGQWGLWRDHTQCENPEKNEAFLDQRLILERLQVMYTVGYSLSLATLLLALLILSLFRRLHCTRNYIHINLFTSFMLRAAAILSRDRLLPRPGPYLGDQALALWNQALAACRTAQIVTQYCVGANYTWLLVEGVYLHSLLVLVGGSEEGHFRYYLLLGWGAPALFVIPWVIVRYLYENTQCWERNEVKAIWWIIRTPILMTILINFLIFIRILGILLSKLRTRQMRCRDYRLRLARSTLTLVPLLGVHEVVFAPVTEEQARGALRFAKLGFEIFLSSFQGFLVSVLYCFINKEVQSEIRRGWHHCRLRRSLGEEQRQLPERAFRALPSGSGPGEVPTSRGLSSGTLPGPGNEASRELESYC
In short: as §1

[3] = target: T3, human GLP-1 receptor (GLP-1R) (Homo sapiens, UniProt P43220); assay: cAMP assay, human GLP-1R cells
T3 construct: expressed in transfected cells
In short: as §1

GLP-1R (INS1e assay) = target: T4, GLP-1R (INS1e assay) (Rattus norvegicus, UniProt P32301); assay: INS1e assay, cAMP activity at GLP-1R
T4 construct: endogenous in cells; host or cells: INS-1E cells
T4 sequence (P32301 22-463): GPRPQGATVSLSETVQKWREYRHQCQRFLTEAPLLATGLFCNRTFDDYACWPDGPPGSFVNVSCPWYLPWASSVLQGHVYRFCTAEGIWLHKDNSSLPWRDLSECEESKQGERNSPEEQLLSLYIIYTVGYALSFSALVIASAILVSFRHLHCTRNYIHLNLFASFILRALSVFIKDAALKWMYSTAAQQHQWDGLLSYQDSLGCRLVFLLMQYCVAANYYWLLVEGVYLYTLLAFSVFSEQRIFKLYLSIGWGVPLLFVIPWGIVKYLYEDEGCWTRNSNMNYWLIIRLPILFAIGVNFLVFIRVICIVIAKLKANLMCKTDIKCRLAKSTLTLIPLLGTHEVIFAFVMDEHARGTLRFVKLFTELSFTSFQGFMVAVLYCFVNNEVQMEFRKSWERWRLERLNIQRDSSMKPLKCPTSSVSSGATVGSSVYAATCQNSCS
In short: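 It pairs cAMP-d2 acceptor with anti-cAMP cryptate donor, both prepared 1/20 in conjugate/lysis buffer, applied as a two-step protocol.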

[4] = tris-lipidated peptides, second replicate, read-out: Primary assay EC50 Gluc-R (n2)
[5] = tris-lipidated peptides, second replicate, read-out: Primary assay EC50 GIP-R (n2)
[6] = tris-lipidated peptides, mean of n1 and n2, read-out: Primary assay EC50 Mean pM GLP-1R
[7] = tris-lipidated peptides, replicate n1, read-out: Primary assay EC50 GLP-1R n1
[8] = tris-lipidated peptides, replicate n2, read-out: Primary assay EC50 GLP-1R n2
[9] = tris-lipidated peptides, mean of n1 and n2, read-out: INS1e assay EC50 Mean pM GLP-1R
[10] = tris-lipidated peptides, replicate n1, read-out: INS1e assay EC50 GLP-1R n1
[11] = tris-lipidated peptides, replicate n2, read-out: INS1e assay EC50 GLP-1R n2

T3 sequence (P43220 24-463): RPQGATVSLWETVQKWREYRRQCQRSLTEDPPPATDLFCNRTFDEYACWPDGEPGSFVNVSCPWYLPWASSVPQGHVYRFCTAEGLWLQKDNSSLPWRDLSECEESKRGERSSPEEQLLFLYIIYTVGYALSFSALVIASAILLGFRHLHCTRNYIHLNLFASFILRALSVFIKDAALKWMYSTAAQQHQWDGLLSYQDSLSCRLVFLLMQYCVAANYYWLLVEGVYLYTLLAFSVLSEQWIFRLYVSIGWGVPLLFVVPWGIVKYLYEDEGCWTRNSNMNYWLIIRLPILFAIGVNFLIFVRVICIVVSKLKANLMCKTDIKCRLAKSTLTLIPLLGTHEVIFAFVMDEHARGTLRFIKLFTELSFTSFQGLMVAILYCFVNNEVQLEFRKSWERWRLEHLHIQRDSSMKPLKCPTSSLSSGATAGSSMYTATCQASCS
T1 sequence (P47871 26-477): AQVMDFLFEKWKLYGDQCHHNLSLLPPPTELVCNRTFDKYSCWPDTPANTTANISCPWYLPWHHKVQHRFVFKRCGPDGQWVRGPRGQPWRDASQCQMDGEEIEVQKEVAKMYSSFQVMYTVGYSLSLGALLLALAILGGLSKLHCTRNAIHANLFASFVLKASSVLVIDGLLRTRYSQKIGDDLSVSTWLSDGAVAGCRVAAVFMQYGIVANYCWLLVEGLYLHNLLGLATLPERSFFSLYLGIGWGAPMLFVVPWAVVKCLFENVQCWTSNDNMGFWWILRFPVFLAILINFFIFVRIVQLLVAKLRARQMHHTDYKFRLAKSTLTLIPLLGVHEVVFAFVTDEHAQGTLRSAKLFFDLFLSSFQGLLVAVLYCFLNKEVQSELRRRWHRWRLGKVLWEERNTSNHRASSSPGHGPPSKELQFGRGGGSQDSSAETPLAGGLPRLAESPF

EC50 ([1]; bis-lipidated peptides, first replicate, read-out: Primary assay EC50 Gluc-R (n1))	EC50 ([2]; bis-lipidated peptides, first replicate, read-out: Primary assay EC50 GIP-R (n1))	EC50 ([3]; bis-lipidated peptides, replicate n1, read-out: Primary assay EC50 GLP-1R n1)	EC50 ([3]; bis-lipidated peptides, replicate n2, read-out: Primary assay EC50 GLP-1R n2)	EC50 (GLP-1R (INS1e assay); bis-lipidated peptides, mean of n1 and n2, read-out: INS1e assay EC50 Mean pM GLP-1R)	EC50 (GLP-1R (INS1e assay); bis-lipidated peptides, replicate n1, read-out: INS1e assay EC50 GLP-1R n1)	EC50 (GLP-1R (INS1e assay); bis-lipidated peptides, replicate n2, read-out: INS1e assay EC50 GLP-1R n2)	EC50 [1, 4]	EC50 [2, 5]	EC50 [3, 6]	EC50 [3, 7]	EC50 [3, 8]	EC50 (GLP-1R (INS1e assay); [9])	EC50 (GLP-1R (INS1e assay); [10])	EC50 (GLP-1R (INS1e assay); [11])	EC50 ([2]; tris-lipidated peptides, first replicate, read-out: Primary assay EC50 GIP-R (n1))	EC50 ([1]; tris-lipidated peptides, first replicate, read-out: Primary assay EC50 Gluc-R (n1))	SMILES
≥ 21.5 nM	≥ 21.5 nM	2.19 pM	2.31 pM	94 pM	101 pM	87.2 pM											CCCCCCCCCCCC(=O)N[C@@H](CCC(=O)NCCOCCOCC(=O)NCCOCCOCC(=O)NCCCC[C@H](NC(=O)[C@H](C)NC(=O)[C@@H](NC(=O)[C@H](Cc1ccc(OC)cc1)NC(=O)[C@H](CCC(=O)O)NC(=O)[C@](C)(CCCCN)NC(=O)[C@H](C)NC(=O)[C@H](C)NC(=O)[C@H](CCC(=O)O)NC(=O)CNC(=O)[C@H](CCC(=O)O)NC(=O)[C@H](CC(C)C)NC(=O)[C@H](CCCCNC(=O)COCCOCCNC(=O)COCCOCCNC(=O)CC[C@H](NC(=O)CCCCCCCCCCC)C(=O)O)NC(=O)[C@H](CO)NC(=O)[C@](C)(CO)NC(=O)[C@@H](NC(=O)[C@H](CC(=O)O)NC(=O)[C@H](CO)NC(=O)[C@@H](NC(=O)[C@](C)(Cc1ccccc1)NC(=O)[C@H](CO)NC(=O)CNC(=O)[C@H](CCC(=O)O)NC(=O)C(C)(C)NC(=O)[C@@H](N)Cc1c[nH]cn1)[C@@H](C)O)C(C)C)[C@@H](C)CC)C(=O)N[C@H](C(=O)N[C@H](C(=O)N[C@@H](CCC(=O)O)C(=O)NCC(=O)NCC(N)=O)C(C)C)C(C)C)C(=O)O [compound 406] (H-H[Aib]EGS[αMeF]TSDV[αMeS]SK([AEEA-AEEA-γGlu-Lauroyl])LEGEAA[αMeK]EY(Me)IAK([AEEA-AEEA-γGlu-Lauroyl])VVEGG-NH2; N-terminus assumed)
							19.9 nM	19.9 nM	49 pM	28 pM	70 pM	6810 pM	6380 pM	7240 pM			CCCCCCCCCCCC(=O)N[C@@H](CCC(=O)NCCOCCOCC(=O)NCCOCCOCC(=O)NCCCC[C@H](NC(=O)[C@H](CO)NC(=O)[C@](C)(CO)NC(=O)[C@@H](NC(=O)[C@H](CC(=O)O)NC(=O)[C@H](CO)NC(=O)[C@@H](NC(=O)[C@](C)(Cc1ccccc1)NC(=O)[C@H](CO)NC(=O)CNC(=O)[C@H](CCC(=O)O)NC(=O)C(C)(C)NC(=O)[C@@H](N)Cc1c[nH]cn1)[C@@H](C)O)C(C)C)C(=O)N[C@@H](CC(C)C)C(=O)N[C@@H](CCC(=O)O)C(=O)NCC(=O)N[C@@H](CCC(=O)O)C(=O)N[C@@H](C)C(=O)N[C@@H](C)C(=O)N[C@@](C)(CCCCN)C(=O)N[C@@H](CCCCNC(=O)COCCOCCNC(=O)COCCOCCNC(=O)CC[C@H](NC(=O)CCCCCCCCCCC)C(=O)O)C(=O)N[C@@H](Cc1ccccc1)C(=O)N[C@H](C(=O)N[C@@H](CCCCNC(=O)COCCOCCNC(=O)COCCOCCNC(=O)CC[C@H](NC(=O)CCCCCCCCCCC)C(=O)O)C(=O)N[C@@H](Cc1ccccc1)C(=O)N[C@H](C(=O)N[C@H](C(=O)N[C@@H](CCC(=O)O)C(=O)NCC(=O)NCC(N)=O)C(C)C)C(C)C)[C@@H](C)CC)C(=O)O [compound 450] (H-H[Aib]EGS[αMeF]TSDV[αMeS]SK([AEEA-AEEA-γGlu-Lauroyl])LEGEAA[αMeK]K([AEEA-AEEA-γGlu-Lauroyl])FIK([AEEA-AEEA-γGlu-Lauroyl])FVVEGG-NH2; N-terminus assumed)
							19.7 nM		43.7 pM	22.1 pM	65.2 pM	5550 pM	4100 pM	6990 pM	19.7 nM		CCCCCCCCCCCC(=O)N[C@@H](CCC(=O)NCCOCCOCC(=O)NCCOCCOCC(=O)NCCCC[C@H](NC(=O)[C@H](Cc1ccc(O)cc1)NC(=O)[C@H](CO)NC(=O)[C@](C)(CO)NC(=O)[C@@H](NC(=O)[C@H](CC(=O)O)NC(=O)[C@H](CO)NC(=O)[C@@H](NC(=O)[C@](C)(Cc1ccccc1)NC(=O)[C@H](CO)NC(=O)CNC(=O)[C@H](CCC(=O)O)NC(=O)C(C)(C)NC(=O)[C@@H](N)Cc1c[nH]cn1)[C@@H](C)O)C(C)C)C(=O)N[C@@H](CCC(=O)O)C(=O)NCC(=O)N[C@@H](CCC(=O)O)C(=O)N[C@@H](C)C(=O)N[C@@H](C)C(=O)N[C@@](C)(CCCCN)C(=O)N[C@@H](CCCCNC(=O)COCCOCCNC(=O)COCCOCCNC(=O)CC[C@H](NC(=O)CCCCCCCCCCC)C(=O)O)C(=O)N[C@@H](Cc1ccccc1)C(=O)N[C@H](C(=O)N[C@@H](CCCCNC(=O)COCCOCCNC(=O)COCCOCCNC(=O)CC[C@H](NC(=O)CCCCCCCCCCC)C(=O)O)C(=O)N[C@@H](Cc1ccccc1)C(=O)N[C@H](C(=O)N[C@H](C(=O)N[C@@H](CCC(=O)O)C(=O)NCC(=O)NCC(N)=O)C(C)C)C(C)C)[C@@H](C)CC)C(=O)O [compound 454] (H-H[Aib]EGS[αMeF]TSDV[αMeS]SYK([AEEA-AEEA-γGlu-Lauroyl])EGEAA[αMeK]K([AEEA-AEEA-γGlu-Lauroyl])FIK([AEEA-AEEA-γGlu-Lauroyl])FVVEGG-NH2)
								19.8 nM	87.4 pM	54.8 pM	120 pM	4910 pM	6740 pM	3080 pM		19.8 nM	CCCCCCCCCCCC(=O)N[C@@H](CCC(=O)NCCOCCOCC(=O)NCCOCCOCC(=O)NCCCC[C@H](NC(=O)[C@H](C)NC(=O)[C@@H](NC(=O)[C@H](Cc1ccccc1)NC(=O)[C@H](CCC(=O)O)NC(=O)[C@](C)(CCCCN)NC(=O)[C@H](C)NC(=O)[C@H](C)NC(=O)[C@H](CCC(=O)O)NC(=O)[C@H](CCCCNC(=O)COCCOCCNC(=O)COCCOCCNC(=O)CC[C@H](NC(=O)CCCCCCCCCCC)C(=O)O)NC(=O)[C@H](CCC(=O)O)NC(=O)[C@H](CC(C)C)NC(=O)[C@H](Cc1ccc(O)cc1)NC(=O)[C@H](CO)NC(=O)[C@H](CO)NC(=O)[C@H](CCCCNC(=O)COCCOCCNC(=O)COCCOCCNC(=O)CC[C@H](NC(=O)CCCCCCCCCCC)C(=O)O)NC(=O)[C@H](CC(=O)O)NC(=O)[C@H](CO)NC(=O)[C@@H](NC(=O)[C@](C)(Cc1ccccc1)NC(=O)[C@H](CO)NC(=O)CNC(=O)[C@H](CCC(=O)O)NC(=O)C(C)(C)NC(=O)[C@@H](N)Cc1c[nH]cn1)[C@@H](C)O)[C@@H](C)CC)C(=O)N[C@H](C(=O)N[C@H](C(=O)N[C@@H](CCC(=O)O)C(=O)NCC(=O)NCC(N)=O)C(C)C)C(C)C)C(=O)O [compound 455] (H-H[Aib]EGS[αMeF]TSDK([AEEA-AEEA-γGlu-Lauroyl])SSYLEK([AEEA-AEEA-γGlu-Lauroyl])EAA[αMeK]EFIAK([AEEA-AEEA-γGlu-Lauroyl])VVEGG-NH2)
